“And” between values parts separate entries of the source, which are not always exact repeats. Equal values may be shown once.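 Results reflect a 48-hour exposure of cells in 96-well plates to compound at five concentrations. GI50 = concentration required for 50% inhibition of growth. TGI marks complete inhibition of growth.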
Legend:
Experiment in all cases: inhibition of tumour cell growth, NCI panel, 48 h
[1] = test system: MDA-MB-231 breast
[2] = test system: UACC-62 melanoma
[3] = test system: HCC-2998 colon
[4] = test system: PC-3 prostate
[5] = test system: MDA-MB-435
[6] = test system: OVCAR-8 ovarian
[7] = test system: SF-268 CNS
[8] = test system: CCRF-CEM leukemia
[9] = test system: HOP-92 NSCLC
[10] = test system: SK-MEL-5 melanoma
[11] = test system: TK-10 renal
[12] = test system: SK-MEL-28 melanoma
[13] = test system: HT29 colon
[14] = test system: NCI/ADR-RES ovarian
[15] = test system: NCI-H226 lung
[16] = test system: UO-31 renal
[17] = test system: SK-OV-3 ovarian
[18] = test system: SK-MEL-2 melanoma
[19] = test system: MALME-3M melanoma
[20] = test system: EKVX NSCLC
[21] = test system: ACHN renal
[22] = test system: A498 renal
[23] = test system: MOLT-4 leukemia
[24] = test system: SN12C renal
[25] = test system: M14 melanoma
[26] = test system: HL-60(TB) leukemia
[27] = test system: MCF7 breast
[28] = test system: SW-620 colon
[29] = test system: OVCAR-3 ovarian
[30] = test system: DU-145 prostate
[31] = test system: LOX IMVI melanoma
[32] = test system: U251 CNS
[33] = test system: KM12 colon
[34] = test system: NCI-H23 lung
[35] = test system: SF-539 CNS
[36] = test system: BT-549 breast
[37] = test system: SNB-75 CNS
[38] = test system: SNB-19 CNS
[39] = test system: 786-0 renal
[40] = test system: SF-295 CNS
[41] = test system: HS 578T breast
[42] = test system: COLO 205 colon
[43] = test system: SR leukemia
[44] = test system: IGROV1 ovarian
[45] = test system: HCT-15 colon
[46] = test system: T-47D breast
[47] = test system: RXF 393 renal
[48] = test system: A549 NSCLC
[49] = test system: OVCAR-5 ovarian
[50] = test system: K-562 leukemia
[51] = test system: NCI-H460 lung
[52] = test system: HCT-116 colon
[53] = test system: CAKI-1 renal
[54] = test system: RPMI-8226 leukemia
[55] = test system: HOP-62 NSCLC
[56] = test system: OVCAR-4 ovarian
[57] = test system: NCI-H522 lung
[58] = test system: UACC-257 melanoma

**Q.** With `Cc1ccc(NC(=O)c2ccc(CN3CC[C@H](N(C)C)C3)c(C(F)(F)F)c2)cc1Nc1nccc(-c2cncnc2)n1` as the compound, how does the GI50 [1] read?
**A.** 1.42 µM and 1.98 µM

**Q.** What about the TGI [1] of the same compound?
**A.** 7.82 µM and > 10 µM

**Q.** What about the GI50 [2] of the same compound?
**A.** 1.05 µM and 0.387 µM

**Q.** What about the TGI [2] of the same compound?
**A.** 15.7 µM and > 10 µM

**Q.** What about the GI50 [3] of the same compound?
**A.** 10.8 µM and > 10 µM

**Q.** And the TGI [3]?
**A.** 28 µM and > 10 µM

**Q.** What about the GI50 [4] of the same compound?
**A.** 13.4 µM and > 10 µM

**Q.** What about the TGI [4] of the same compound?
**A.** 35 µM and > 10 µM

**Q.** And the GI50 [5]?
**A.** 1.73 µM and 3.1 µM

**Q.** What about the TGI [5] of the same compound?
**A.** 15.6 µM and > 10 µM

**Q.** What about the GI50 [6] of the same compound?
**A.** 13.8 µM and > 10 µM

**Q.** And the TGI [6]?
**A.** 36.1 µM and > 10 µM

**Q.** And the GI50 [7]?
**A.** 10.4 µM and > 10 µM

**Q.** What about the TGI [7] of the same compound?
**A.** 28.5 µM and > 10 µM

**Q.** What about the GI50 [8] of the same compound?
**A.** 7.23 µM and 4.55 µM

**Q.** What about the TGI [8] of the same compound?
**A.** 30.9 µM and > 10 µM

**Q.** And the GI50 [9]?
**A.** 5.1 µM and 1.66 µM

**Q.** And the TGI [9]?
**A.** 22 µM and > 10 µM

**Q.** What about the GI50 [10] of the same compound?
**A.** 3.79 µM and 4.05 µM

**Q.** And the TGI [10]?
**A.** 9.07 µM and > 10 µM

**Q.** And the GI50 [11]?
**A.** 15 µM and > 10 µM

**Q.** What about the TGI [11] of the same compound?
**A.** 28.4 µM and > 10 µM

**Q.** And the GI50 [12]?
**A.** 0.798 µM and 0.635 µM

**Q.** And the TGI [12]?
**A.** 5.53 µM and > 10 µM

**Q.** What about the GI50 [13] of the same compound?
**A.** 0.606 µM and 0.637 µM

**Q.** What about the TGI [13] of the same compound?
**A.** 15.7 µM and > 10 µM

**Q.** What about the GI50 [14] of the same compound?
**A.** 12.5 µM and > 10 µM

**Q.** What about the TGI [14] of the same compound?
**A.** 45.1 µM and > 10 µM

**Q.** And the GI50 [15]?
**A.** 15.2 µM and > 10 µM

**Q.** And the TGI [15]?
**A.** 36.6 µM and > 10 µM

**Q.** And the GI50 [16]?
**A.** 6.69 µM and 5.17 µM

**Q.** And the TGI [16]?
**A.** 21.9 µM and > 10 µM

**Q.** And the GI50 [17]?
**A.** 16 µM and > 10 µM

**Q.** And the TGI [17]?
**A.** 32.1 µM and > 10 µM

**Q.** And the GI50 [18]?
**A.** 2.64 µM and 2.5 µM

**Q.** And the TGI [18]?
**A.** 13.3 µM and > 10 µM

**Q.** And the GI50 [19]?
**A.** 0.217 µM and 0.402 µM

**Q.** What about the GI50 [20] of the same compound?
**A.** 14.6 µM and > 10 µM

**Q.** What about the TGI [20] of the same compound?
**A.** 40 µM and > 10 µM

**Q.** What about the GI50 [21] of the same compound?
**A.** 4.04 µM and 8.38 µM

**Q.** What about the TGI [21] of the same compound?
**A.** 14.8 µM and > 10 µM

**Q.** And the GI50 [22]?
**A.** 12.1 µM and > 10 µM

**Q.** And the TGI [22]?
**A.** 27.1 µM and > 10 µM

**Q.** And the GI50 [23]?
**A.** 5.23 µM and 3.69 µM

**Q.** And the TGI [23]?
**A.** 21.4 µM and > 10 µM

**Q.** And the GI50 [24]?
**A.** 14.2 µM and > 10 µM

**Q.** And the TGI [24]?
**A.** 34.4 µM and > 10 µM

**Q.** And the GI50 [25]?
**A.** 0.425 µM and 0.668 µM

**Q.** And the TGI [25]?
**A.** 4.9 µM and > 10 µM

**Q.** And the GI50 [26]?
**A.** 5.85 µM and 0.758 µM

**Q.** What about the TGI [26] of the same compound?
**A.** 22.6 µM and > 10 µM

**Q.** What about the GI50 [27] of the same compound?
**A.** 6.63 µM and > 10 µM

**Q.** And the TGI [27]?
**A.** 24.6 µM and > 10 µM

**Q.** And the GI50 [28]?
**A.** 6.15 µM and > 10 µM

**Q.** What about the TGI [28] of the same compound?
**A.** 22.1 µM and > 10 µM

**Q.** And the GI50 [29]?
**A.** 6.12 µM and 8.64 µM

**Q.** And the TGI [29]?
**A.** 20.5 µM and > 10 µM

**Q.** And the GI50 [30]?
**A.** 12 µM and > 10 µM

**Q.** What about the TGI [30] of the same compound?
**A.** 29.6 µM and > 10 µM

**Q.** What about the GI50 [31] of the same compound?
**A.** 0.936 µM and 0.952 µM

**Q.** And the TGI [31]?
**A.** 7.14 µM and > 10 µM

**Q.** And the GI50 [32]?
**A.** 6.28 µM and 6.5 µM

**Q.** What about the TGI [32] of the same compound?
**A.** 17.3 µM and > 10 µM

**Q.** And the GI50 [33]?
**A.** 6.65 µM and > 10 µM

**Q.** And the TGI [33]?
**A.** 23.5 µM and > 10 µM

**Q.** And the GI50 [34]?
**A.** 5.61 µM and 8.08 µM

**Q.** What about the TGI [34] of the same compound?
**A.** 26.5 µM and > 10 µM

**Q.** What about the GI50 [35] of the same compound?
**A.** 4.5 µM and 6.26 µM

**Q.** What about the TGI [35] of the same compound?
**A.** 9.34 µM and > 10 µM

**Q.** And the GI50 [36]?
**A.** 5.96 µM and > 10 µM

**Q.** And the TGI [36]?
**A.** 13.3 µM and > 10 µM

**Q.** And the GI50 [37]?
**A.** 10.3 µM and > 10 µM

**Q.** What about the TGI [37] of the same compound?
**A.** 22.8 µM and > 10 µM

**Q.** And the GI50 [38]?
**A.** 10.9 µM and > 10 µM

**Q.** What about the TGI [38] of the same compound?
**A.** 31.7 µM and > 10 µM

**Q.** What about the GI50 [39] of the same compound?
**A.** 6.11 µM and 6.67 µM

**Q.** And the TGI [39]?
**A.** 14.9 µM and > 10 µM

**Q.** What about the GI50 [40] of the same compound?
**A.** 4.85 µM and > 10 µM

**Q.** What about the TGI [40] of the same compound?
**A.** 12.5 µM and > 10 µM

**Q.** And the GI50 [41]?
**A.** 7.62 µM and 2.23 µM

**Q.** What about the TGI [41] of the same compound?
**A.** 35.6 µM and > 10 µM

**Q.** And the GI50 [42]?
**A.** 0.331 µM and 0.423 µM

**Q.** And the TGI [42]?
**A.** 6.65 µM and > 10 µM

**Q.** What about the GI50 [43] of the same compound?
**A.** 2.79 µM and 1.99 µM

**Q.** And the TGI [43]?
**A.** > 24.4 µM and 5.04 µM

**Q.** And the GI50 [44]?
**A.** 7.21 µM and 5.14 µM

**Q.** And the TGI [44]?
**A.** 24.8 µM and > 10 µM

**Q.** And the GI50 [45]?
**A.** 4.47 µM and 5.13 µM

**Q.** And the TGI [45]?
**A.** 23.5 µM and > 10 µM

**Q.** And the GI50 [46]?
**A.** 5.16 µM and > 10 µM

**Q.** And the TGI [46]?
**A.** 12.2 µM and > 10 µM

**Q.** What about the GI50 [47] of the same compound?
**A.** 11.9 µM and 9.4 µM

**Q.** What about the TGI [47] of the same compound?
**A.** 27 µM and > 10 µM

**Q.** And the GI50 [48]?
**A.** 11.3 µM and > 10 µM

**Q.** What about the TGI [48] of the same compound?
**A.** 28.5 µM and > 10 µM

**Q.** And the GI50 [49]?
**A.** 5.5 µM and 6.04 µM

**Q.** What about the TGI [49] of the same compound?
**A.** 24.2 µM and > 10 µM

**Q.** And the GI50 [50]?
**A.** 0.00433 µM

**Q.** And the TGI [50]?
**A.** 5.6 µM and > 10 µM

**Q.** And the GI50 [51]?
**A.** 2.99 µM and 8.15 µM

**Q.** What about the TGI [51] of the same compound?
**A.** 9.95 µM and > 10 µM

**Q.** What about the GI50 [52] of the same compound?
**A.** 1.62 µM and 2.61 µM

**Q.** And the TGI [52]?
**A.** 9.9 µM and > 10 µM

**Q.** What about the GI50 [53] of the same compound?
**A.** 9.06 µM and > 10 µM

**Q.** What about the TGI [53] of the same compound?
**A.** 27.4 µM and > 10 µM

**Q.** And the GI50 [54]?
**A.** 5.08 µM and 4.4 µM

**Q.** And the TGI [54]?
**A.** 24 µM and > 10 µM

**Q.** What about the GI50 [55] of the same compound?
**A.** 9.83 µM and 9.62 µM

**Q.** And the TGI [55]?
**A.** 24.5 µM and > 10 µM

**Q.** What about the GI50 [56] of the same compound?
**A.** 10.9 µM and > 10 µM

**Q.** And the TGI [56]?
**A.** 30.1 µM and > 10 µM

**Q.** And the GI50 [57]?
**A.** 4.5 µM and > 10 µM

**Q.** What about the TGI [57] of the same compound?
**A.** 13.1 µM and > 10 µM

**Q.** What about the GI50 [58] of the same compound?
**A.** 1.44 µM and 1.14 µM

**Q.** And the TGI [58]?
**A.** 6.74 µM and 3.53 µM
